Results as given in patent US12208001B2, “Methods and systems for preventing or reducing stenosis in a subject receiving a graft” (The General Hospital Corporation, priority 2012, dated 2025).
Read-outs that look alike come from different tables or passages of the source.

How the values were obtained:
[1] = system: connective tissue
Source text: In certain embodiments, a photoactive agent, e.g., Rose Bengal, can be applied, e.g., by brushing, dripping or spraying onto, or injecting into, tissue surfaces (e.g., a single surface in some cases) of a tissue prior to the application of electromagnetic energy, followed by irradiation at an irradiance of less than about 1 W/cm^2. Penetration of topically applied Rose Bengal is about 100 μm or less into connective tissue. […] Similarly, vein grafts or arteriovenous fistula can be prepared for therapeutic use by providing Rose Bengal to the tissue and irradiating the tissue at an irradiance of less than about 1 W/cm^2.

[2] = system: rabbit model for capsular contraction; assay: Pilot rabbit model for capsular contraction: sub-cutaneous pockets with fibrin glue, histology at two weeks; format: in vivo; settings: tissue harvested at two weeks; 0.1% Rose Bengal + 532 nm light (3 min at 350 mW) prior to fibrin glue; vs fibrin glue only
Method: (§1) A pilot experiment in a rabbit model for capsular contraction was developed. Three sub-cutaneous pockets were made by surgical incision on the upper rabbit flank. One pocket was left untreated and surgically closed (No fibrin glue). Of the remaining two, one was treated with Fibrin Glue only, and one received Fibrin Glue+RB (0.1% Rose Bengal)+532 nm light (3 min at 350 mW). Fibrin glue is known to produce a fibrotic reaction in this model. After two weeks all three pockets were surgically re-accessed and inspected. […] These cells also appear contained under layers of presumably, cross-linked collagen. A biodegradation assay was also performed. Pockets were treated as described above at both a low (1 J/cm^2) and high (25 J/cm^2) fluence. Fluence was measured using FieldMax II laser power meter (Coherent, Santa Clara, CA). Immediately following, the skin and fascia were removed. Treated and untreated fascia were biopsied with a six mm punch biopsy, weighed and subjected to digestion in a 1% collagenase (Sigma Aldrich. St. Louis, MO) solution at 37° C. Time for complete digestion (the lack of any visible fibers) was recorded for each sample and corrected by weight.

[3] = system: fascia of the implant pocket; assay: Biodegradation assay: collagenase digestion of fascia; parameters: species or system rabbit
Method: as §1, with “weight. In vitro studies confirmed that photochemical tissue passivation, under the conditions that were subsequently used in the animal study, could successfully alter the fascia of the implant pocket. […]” for “weight.”

[4] = system: capsular contracture following prosthetic implant placement; assay: Pre-clinical model of capsular contracture following prosthetic implant placement, fibrin glue induced; format: in vivo, New Zealand white rabbits
Method: The effect of Photochemical Tissue Passivation in a pre-clinical model of capsular contracture following prosthetic implant placement was evaluated. Under general anesthesia, Nine New Zealand white rabbits received three, six cc smooth saline implants placed in the dorsal sub-panniculus soft tissue. Each Rabbit received one control implant and two experimental implants. Briefly, the subpanniculus camosus plane in the dorsum region was dissected and a single customized six cc saline smooth implant with pressure port valve (Allergan Inc., CA, USA) was placed. A total of three implants were placed on the dorsum of each rabbit. The control group consisted of an implant with no Fibrin Glue and no PTP treatment. Before implant placement, the pocket site of the PTP experimental group was treated with 2 ml 0.1% Rose Bengal in a phosphate buffered saline, and Was then exposed to green laser light at 532 nm from a continuous wave KTP laser (Laserscope Aura-I, San Jose, CA). The second experimental group consisted of an implant with Fibrin Glue only. Prior to implant placement, all experimental pockets were injected with five cc of fibrin glue, 500 |μl of 10% CaCl, 1000 units of thrombin in one milliliter of 50 mM TrisCl as a contracture inducing agent. The incisions were closed in two layers with subdermal 4-0 […] and 4-0 interrupted nylon sutures. Topical fibrin glue was applied to the implant pockets in all experimental groups to induce subsequent capsular contracture. Accordingly, the experimental groups can be summarized as follows: Group 1: Control group-“Standard Breast Augmentation” One pocket per Rabbit undergoing standard implant placement with no Fibrin Glue or Passivation. One six cc smooth saline implant was placed per pocket. The incisions were closed in two layers with subdermal 4-0 Vicryl and 4-0 interrupted nylon sutures. Group 2: Experimental group-“Fibrin Glue” only One dorsal pocket per Rabbit is dissected. Fibrin glue was injected into the implant pocket as a capsular contracture-inducing agent. One six cc smooth saline implants was placed per pocket. The incision was closed as above. Group 3: Experimental group-“Pre-implant Tissue Passivation” One dorsal pocket per Rabbit was dissected, Rose Bengal dye was applied. The pocket was exposed to green laser light at. 532 nm from. a continuous wave KT.? laser (Laserscope Aura-I, San Jose, CA). Fibrin glue was injected into the implant pocket as a capsular contracture-inducing agent. Following fibrin glue injection, one six cc smooth saline implant was placed per pocket. The incision was closed as above. Capsule specimens were fixed with 10% buffered formalin and embedded in paraffin. Sections were stained with both Masson Trichrome, and SMA antibody and evaluated histologically and capsular thickness was measured. […] In fact, the SMA pattern in capsules harvested from the treated groups resembled those, which had not been instilled with fibrin glue (FIG. 3).

[5] = system: vein graft intimal hyperplasia; format: in vivo, Sprague-Dawley rats
Method: In vivo testing was done by placing a. reversed epigastric vein interposition graft in the femoral artery of Sprague-Dawley rats. Grafts were harvested after four weeks. A total of 16 rats underwent a femoral interposition graft with reversed epigastric vein. Half of the vein gratis (N=8) were treated with PTP using 25 J/cm^2 at fluence. Average operative time was two hours. Additional operative time for PTP was 4-5 minutes on average. There were three instances of surgical wound dehiscence between post-operative day one and two; one in the control group and two in the experimental group. These wounds were irrigated and resutured. None of the grafts were exposed. […] After four weeks, 100% of the vein grafts were patent. […] Histologic cross-sections of the mid-portion of the graft were analyzed using light microscopy. Intimal thickness was measured as the distance between the internal elastic lamina. and the vessel lumen.

SMILES: O=C1OC2(c3cc(I)c(O)c(I)c3Oc3c2cc(I)c(O)c3I)c2c(Cl)c(Cl)c(Cl)c(Cl)c21 [PTP, Rose Bengal]
- penetration into connective tissue [1]: ≤ 100 μm
- inflammatory infiltrate within the implant pockets (histology) [2]: less infiltrate
- increase in degradation time (collagenase digestion) ([3]; 1% collagenase, 37° C, compared to untreated tissue): 300%
- effect of increasing the power of the laser on collagen cross-linking ([3]; high (25 J/cm^2) vs low (1 J/cm^2) fluence): did not increase collagen cross-linking
- capsular thickness compared to Fibrin Glue alone control (histology) ([4]; eight weeks, Fibrin Glue + Photochemical Tissue Passivation group): significant decrease in capsular thickness
- decrease in capsule thickness ([4]; eight weeks, compared to the controls): 52%
- deposition of smooth muscle actin (SMA immunohistochemistry) ([4]; eight weeks, treated pockets vs untreated pockets receiving fibrin glue): significantly less deposition of smooth muscle actin
- fibrohistiocystic cells, macrophages and synovial metaplasia ([4]; treated pockets): less fibrohistiocystic cells, macrophages and synovial metaplasia
- inflammation and vascularity within the capsule ([4]; treated pockets): decreased inflammation and vascularity
- Intimal Thickness ([5]; after four weeks, N = 8, Table 2): 24 + 22 um
- Medial thickness ([5]; after four weeks, N = 8, Table 3): 141 + 40 um
- vein grafts patent ([5]; after four weeks, all grafts, treated and untreated): 100%
- neointimal thickness ([5]; four weeks, PTP 25 J/cm^2, N=8): 24+22 μm
- Medial thickness ([5]; four weeks, treated grafts): 141 µm
- instances of surgical wound dehiscence ([5]; rat, in vivo): two
- pseudoaneurysms or aneurysmal dilatation of the grafts ([5]; rat, in vivo): no pseudoaneurysms or aneurysmal dilatation
- wound infections ([5]; rat, in vivo): no wound infections
- graft distention after vessel clamp removal ([5]; restored blood flow, compared to untreated controls): less distention
- smooth muscle hypertrophy and medial thickness ([5]; treated compared to untreated grafts): marked reduction in smooth muscle hypertrophy and medial thickness
- reduction in neointimal thickness ([5]; treated grafts vs untreated): 70%
